Laboratory results as given in patent US5395828A, “Inositol phosphate analogues as calcium-antagonistic substances” (Hoechst Aktiengesellschaft, priority 1991, dated 1995).

Tested on: human platelets
Experiment: Calcium release in saponin-permeabilized human platelets (Quin2 fluorescence)
Assay type: cell-based
Conditions: Platelet, pH 7.4, increase in Quin2-fluorescence, read-out: EC50 (effective concentration), release of Calcium
Experimental: Human platelets were purified in the presence of citrate by differential centrifugation and resuspended to ca 1×10exp9 cells/ml in Tyrode-HEPES-(N-2-hydroxyethyl-piperazine-N'-2 ethane-sulfonic acid)-buffer pH 7.4 containing 0.2% w/v Bovine Serum Albumin and 1 mM EGTA (Ethylene Glycol Bis (β-Aminoethyl Ether)N,N,N',N'-Tetraacidic acid). After 20 min, the platelets were centrifuged again (700×g, 20 min) and resuspended to the same concentration in 4 ml of "assay-buffer" containing:
1.2 mM Potassiumdihydrogenphosphate
25 mM HEPES-buffer, pH as indicated
After a further 30 min, the platelet suspension was diluted 5-fold into assay-buffer containing 2 μM Quin2 (2-[[2-[bis(carboxymethyl)amino]-5-methyl-phenoxy]methyl]-6-methoxy-8-[bis[…]]quinoline) salt as a fluorescence indicator for Calcium. To this suspension Saponin was added to a final concentration of 20 μg/ml to permeabilize the cells. The fluorescence of the suspension was continually monitored with a fluorescence spectrometer until a stable baseline was achieved. At this point, IP3 was added and the resulting release of Calcium measured as an increase in the intensity of the Quin2-fluorescence. An EC50 (effective concentration) value of 2×10exp-7M was obtained at pH 7.4. IP2-5-MP itself had no effect on release of Calcium. […]

EC50: 200 nM
SMILES: O=P(O)(O)O[C@@H]1[C@H](O)[C@H](O)[C@@H](OP(=O)(O)O)[C@H](OP(=O)(O)O)[C@H]1O [IP3, d-myo inositol(1.4.5)trisphosphate]
